Data published in ChEMBL document CHEMBL6153037, “Developing dual-responsive quinolinium prodrugs of 8-hydroxyquinoline by harnessing the dual chelating sites” (Eur J Med Chem, 2025).
Calls of active or inactive are those of the source. No cut-off for these calls is given here.

Tests used:
MCF-10A [1] = experiment: Induction of apoptosis in human MCF-10A cells assessed as necrotic cells at 1.2 uM incubated for 24 hrs by Annexin V-FITC/PI staining based flow cytometry (reference value: 1.38 %); format: toxicity, cell-based
MDA-MB-231 [2] = experiment: Cytotoxicity against CuCl2-treated human MDA-MB-231 cells assessed as inhibition of cell viability incubated for 48 hrs by MTT assay; format: functional, cell-based; details: MDA-MB-231, 48 h
MDA-MB-231 [3] = experiment: Induction of apoptosis in human MDA-MB-231 cells assessed as necrotic cells at 1.2 uM incubated for 24 hrs by Annexin V-FITC/PI staining based flow cytometry (reference value: 0.59 %); format: functional
[4] = Prodrug conversion in PBS at pH 7.4 containing H2O2 assessed as 4-hydroxybenzyl alcohol release by measuring retention time at 50 uM measured after 15 mins by HPLC analysis; format: ADME; details: buffer, pH 7.4, 0.25 h
MDA-MB-231 [5] = experiment: Induction of apoptosis in human MDA-MB-231 cells assessed as necrotic cells at 0.4 uM incubated for 24 hrs by Annexin V-FITC/PI staining based flow cytometry (reference value: 0.59 %); format: functional
MDA-MB-231 [6] = experiment: Anti-migration activity in human MDA-MB-231 cells at 0.4 uM incubated for 48 hrs by wound healing assay (reference value: 65.2 %); format: functional
MDA-MB-231 [7] = experiment: Induction of apoptosis in human MDA-MB-231 cells assessed as viable cells at 0.4 uM incubated for 24 hrs by Annexin V-FITC/PI staining based flow cytometry (reference value: 86.2 %); format: functional; details: read-out: Activity
MDA-MB-231 [8] = experiment: Antitumor activity against human MDA-MB-231 cells assessed as sphere-forming efficiency incubated for 6 hrs followed by medium replacement without compound measured after 6 days by microscopic analysis (reference value: 1.07 %); format: functional
MCF-10A [9] = experiment: Induction of apoptosis in human MCF-10A cells assessed as late apoptotic cells at 0.4 uM incubated for 24 hrs by Annexin V-FITC/PI staining based flow cytometry (reference value: 3.13 %); format: toxicity, cell-based
MDA-MB-231 [10] = experiment: Induction of cell cycle arrest in human MDA-MB-231 cells assessed as accumulation at G0/G1 phase at 0.8 uM by PI staining based flow cytometry (reference value: 64.6 %); format: functional
MDA-MB-231 [11] = experiment: Anti-migration activity in human MDA-MB-231 cells at 0.4 uM incubated for 24 hrs by wound healing assay (reference value: 45.4 %); format: functional
MCF-10A [12] = experiment: Inhibition of mitochondrial membrane potential in human MCF-10A cells assessed as increase in green fluorescence at 0.8 uM incubated for 24 hrs by JC-1 dye based analysis; format: toxicity, cell-based
[13] = Toxicity in BALB/c nude mouse xenografted with human MDA-MB-231 cells assessed as body weight change at 10 to 20 mg/kg, iv administered every two days for 21 days; format: organism-based; details: in vivo, 504 h, dose 10-20 mg/kg, time 21 day
MDA-MB-231 [14] = experiment: Induction of apoptosis in human MDA-MB-231 cells assessed as late apoptotic cells at 0.8 uM incubated for 24 hrs by Annexin V-FITC/PI staining based flow cytometry (reference value: 5.81 %); format: functional
[15] = Cytotoxicity against human MCF-10A cells assessed as cell survival at 10 uM incubated for 48 hrs by MTT assay relative to control; format: toxicity, cell-based; details: read-out: Survival
MDA-MB-231 [16] = experiment: Anti-migration activity in human MDA-MB-231 cells at 0.8 uM incubated for 48 hrs by wound healing assay (reference value: 65.2 %); format: functional
MDA-MB-231 [17] = experiment: Induction of apoptosis in human MDA-MB-231 cells assessed as early apoptotic cells at 0.4 uM incubated for 24 hrs by Annexin V-FITC/PI staining based flow cytometry (reference value: 7.39 %); format: functional
MCF-10A [18] = experiment: Inhibition of mitochondrial membrane potential in human MCF-10A cells assessed as decrease in ATP level at 0.4 to 0.8 uM incubated for 24 hrs by luminescence based analysis; format: toxicity, cell-based; details: dose 0.4-0.8 µM
MDA-MB-231 [19] = experiment: Inhibition of mitochondrial membrane potential in human MDA-MB-231 cells assessed as increase in green fluorescence at 0.8 uM incubated for 24 hrs by JC-1 dye based analysis; format: functional, cell-based
MCF-10A [20] = experiment: Inhibition of mitochondrial membrane potential in human MCF-10A cells assessed as increase in intracellular calcium level at 0.4 to 0.8 uM incubated for 24 hrs by Fluo-4 AM dye based analysis; format: toxicity, cell-based; details: dose 0.4-0.8 µM
MCF-10A [21] = experiment: Induction of apoptosis in human MCF-10A cells assessed as necrotic cells at 0.8 uM incubated for 24 hrs by Annexin V-FITC/PI staining based flow cytometry (reference value: 1.38 %); format: toxicity, cell-based
MCF-10A [22] = experiment: Induction of apoptosis in human MCF-10A cells assessed as late apoptotic cells at 0.8 uM incubated for 24 hrs by Annexin V-FITC/PI staining based flow cytometry (reference value: 3.13 %); format: toxicity, cell-based
A549 = experiment: Cytotoxicity against CuCl2-treated human A549 cells assessed as inhibition of cell viability incubated for 48 hrs by MTT assay; format: functional, cell-based; details: A549, 48 h
[23] = Induction of apoptosis in human MCF-10A cells assessed as viable cells at 0.4 uM incubated for 24 hrs by Annexin V-FITC/PI staining based flow cytometry (reference value: 92.5 %); format: toxicity, cell-based; details: read-out: Activity
[24] = Induction of apoptosis in human MCF-10A cells assessed as viable cells at 0.8 uM incubated for 24 hrs by Annexin V-FITC/PI staining based flow cytometry (reference value: 92.5 %); format: toxicity, cell-based; details: read-out: Activity
MCF-10A [25] = experiment: Induction of apoptosis in human MCF-10A cells assessed as necrotic cells at 0.4 uM incubated for 24 hrs by Annexin V-FITC/PI staining based flow cytometry (reference value: 1.38 %); format: toxicity, cell-based
MDA-MB-231 [26] = experiment: Antitumor activity against human MDA-MB-231 cells xenografted in BALB/c nude mouse assessed as tumor size at 20 mg/kg, iv administered every two days for 21 days (reference value: 1940 mm3); format: functional; details: time 21 day
[27] = Induction of apoptosis in human MCF-10A cells assessed as viable cells at 1.2 uM incubated for 24 hrs by Annexin V-FITC/PI staining based flow cytometry (reference value: 92.5 %); format: toxicity, cell-based; details: read-out: Activity
MDA-MB-231 [28] = experiment: Cytotoxicity against human MDA-MB-231 cells assessed as increase in red fluorescence at 0.4 to 0.8 uM by Calcein AM/PI staining based analysis; format: functional, cell-based; details: dose 0.4-0.8 µM
[29] = Prodrug conversion in solution containing Cu(II) assessed as 8-HQ-Cu(II) complex formation at 50 uM measured upto 30 mins by UV-Vis spectrophotometry; format: ADME; details: 0.5 h
MDA-MB-231 [30] = experiment: Induction of apoptosis in human MDA-MB-231 cells assessed as necrotic cells at 0.8 uM incubated for 24 hrs by Annexin V-FITC/PI staining based flow cytometry (reference value: 0.59 %); format: functional
OVCAR-3 = experiment: Cytotoxicity against CuCl2-treated human OVCAR-3 cells assessed as inhibition of cell viability incubated for 48 hrs by MTT assay; format: functional, cell-based; details: OVCAR-3, 48 h
MDA-MB-231 [31] = experiment: Induction of apoptosis in human MDA-MB-231 cells assessed as early apoptotic cells at 1.2 uM incubated for 24 hrs by Annexin V-FITC/PI staining based flow cytometry (reference value: 7.39 %); format: functional

SMILES: CC1(C)OB(c2ccc(C[n+]3cccc4cccc(O)c43)cc2)OC1(C)C.[Br-]
- Activity (MCF-10A [1]): 0.84%
- IC50 (MDA-MB-231 [2]): 0.83 µM
- Activity (MDA-MB-231 [3]): 6.03%
- Retention_time [4]: 10.2 min
- Activity (MDA-MB-231 [5]): 1.47%
- Activity (MDA-MB-231 [6]): 34.6%
- viability at 0.4 µM (MDA-MB-231 [7]): 71.2%
- Activity (MDA-MB-231 [8]): 0.22%
- Activity (MCF-10A [9]): 2.74%
- Activity (MDA-MB-231 [10]): 74.2%
- Activity (MDA-MB-231 [11]): 16.5%
- Activity (MCF-10A [12]): Non-toxic
- Activity [13]: Non-toxic
- Activity (MDA-MB-231 [14]): 27.9%
- viability at 48 h, 10 µM [15]: 86%
- Activity (MDA-MB-231 [16]): 12.8%
- Activity (MDA-MB-231 [17]): 14.2%
- Activity (MCF-10A [18]): Non-toxic
- inhibition (MDA-MB-231 [19]): Active
- Activity (MCF-10A [20]): Non-toxic
- Activity (MCF-10A [21]): 0.36%
- Activity (MCF-10A [22]): 3.77%
- IC50 (A549): 3.48 µM
- viability at 24 h, 0.4 µM [23]: 94.9%
- viability at 24 h, 0.8 µM [24]: 93.7%
- Activity (MCF-10A [25]): 0.36%
- Activity (MDA-MB-231 [26]): 710 mm3
- viability at 24 h, 1.2 µM [27]: 93.3%
- Activity (MDA-MB-231 [28]): Active
- Drug metabolism [29]: metabolite_detected
- Activity (MDA-MB-231 [30]): 7.08%
- IC50 (OVCAR-3): 6.63 µM
- Activity (MDA-MB-231 [31]): 71%
